These results are taken from PubChem BioAssay (NCI).

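How tested: cells in 96-well plates exposed to compound for 48 hours at five concentrations. GI50 is the concentration that inhibits growth by half. The concentration for full growth arrest is given as TGI.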 Bounds are passed on as bounds.

Among the test systems are SK-MEL-5 melanoma; SR leukemia; ACHN renal; SNB-19 CNS; EKVX NSCLC; HOP-62 NSCLC; SK-OV-3 ovarian; HCC-2998 colon; MDA-MB-231 breast; CCRF-CEM leukemia.
Common to all, as to experiment: NCI-60 cell line screen, 48 h

Regarding `COc1cccc2c1C(=O)c1c(O)c3c(c(O)c1C2=O)C[C@@](O)(/C(C)=N/NC(=O)c1cccc([N+](=O)[O-])c1)C[C@@H]3OC1CC(N)C(O)C(C)O1` (some centres undefined), the GI50 is 0.113 µM with SK-MEL-5 melanoma; 0.0155 µM with SR leukemia; 0.205 µM in the assay with ACHN renal; 0.291 µM in the assay on SNB-19 CNS; 0.495 µM in the assay with EKVX NSCLC; 0.283 µM in the assay with HOP-62 NSCLC. The GI50 in the assay on SK-OV-3 ovarian was 0.374 µM; in the assay on HCC-2998 colon, 0.326 µM; in the assay on MDA-MB-231 breast it was 1.59 µM; in the assay with CCRF-CEM leukemia, 0.167 µM. The TGI in the assay on SK-MEL-5 melanoma came to 0.361 µM; in the assay on ACHN renal it was 1.65 µM; in the assay on SNB-19 CNS, 12 µM; in the assay on EKVX NSCLC, 4.66 µM; in the assay with HOP-62 NSCLC, 4.41 µM; in the assay with SK-OV-3 ovarian, 7.56 µM. For the same molecule, the figures for the TGI in the assay with HCC-2998 colon, with MDA-MB-231 breast and in the assay with CCRF-CEM leukemia were 2.77 µM, 21.3 µM and 4.33 µM, respectively.

Regarding `COc1cc(-c2csc(NC(=O)Nc3ccc(Cl)cc3)n2)cc(OC)c1OC`, the GI50 was 2.2 µM in the assay on SK-MEL-5 melanoma; 4.36 µM in the assay with SR leukemia; 2.53 µM in the assay with ACHN renal; 3.78 µM with SNB-19 CNS; 2.77 µM with EKVX NSCLC; 2.65 µM in the assay on HOP-62 NSCLC. In addition, the GI50 with SK-OV-3 ovarian is 3 µM; in the assay with HCC-2998 colon it was 3.9 µM; in the assay with MDA-MB-231 breast it was 2.99 µM; with CCRF-CEM leukemia it was 3.44 µM. The TGI in the assay on SK-MEL-5 melanoma is 5.2 µM; in the assay on SR leukemia, more than 100 µM; in the assay on ACHN renal it was 7.35 µM; in the assay with SNB-19 CNS, 30.2 µM; in the assay with EKVX NSCLC, more than 64.5 µM; in the assay on HOP-62 NSCLC it was 7.76 µM. Also, the TGI in the assay with SK-OV-3 ovarian is 8.91 µM; with HCC-2998 colon it was 18.8 µM; in the assay with MDA-MB-231 breast, 12.7 µM; in the assay on CCRF-CEM leukemia, more than 49.9 µM.

As to `COc1cc2c(cc1OCCCCCOc1ccc(-c3nc4ccccc4s3)cc1)N=C[C@@H]1CCCN1C2=O`, the GI50 was 0.934 µM in the assay with SK-MEL-5 melanoma; 0.222 µM in the assay on SR leukemia; 2.73 µM in the assay on ACHN renal; 5.08 µM in the assay with SNB-19 CNS; 5.66 µM in the assay with EKVX NSCLC; 1.62 µM in the assay with HOP-62 NSCLC. In addition, the GI50 in the assay with SK-OV-3 ovarian was 8.97 µM; in the assay on HCC-2998 colon it was 3.02 µM; in the assay with MDA-MB-231 breast, 1.02 µM; in the assay with CCRF-CEM leukemia it was 2.48 µM. Moreover, the TGI in the assay on SK-MEL-5 melanoma was 3.88 µM; in the assay on SR leukemia, 1.43 µM; with ACHN renal, 27.6 µM; in the assay with SNB-19 CNS, 20.8 µM; in the assay on EKVX NSCLC, more than 21.2 µM; in the assay on HOP-62 NSCLC it was 7.59 µM. Also, the TGI in the assay with SK-OV-3 ovarian is more than 25.6 µM; with HCC-2998 colon it was 9.06 µM; with MDA-MB-231 breast, 4.2 µM; with CCRF-CEM leukemia, more than 100 µM.

Turning to `CCCN1CCC(Oc2cc(Nc3nc(Nc4cccc(F)c4C(N)=O)c4cc[nH]c4n3)c(OC)cc2Cl)CC1`, the GI50 is 1.23 µM in the assay with SK-MEL-5 melanoma; 1.02 µM in the assay with SR leukemia; 4.01 µM in the assay on ACHN renal; 4.18 µM with SNB-19 CNS; 3.1 µM in the assay with EKVX NSCLC; 1.31 µM in the assay with HOP-62 NSCLC. Also, the GI50 with SK-OV-3 ovarian was 4.87 µM; in the assay with HCC-2998 colon, 0.994 µM; in the assay on MDA-MB-231 breast, 2.16 µM; in the assay on CCRF-CEM leukemia, 3.45 µM. Further, the TGI is 2.67 µM with SK-MEL-5 melanoma; 6.52 µM in the assay with SR leukemia; 7.99 µM with ACHN renal; 8.33 µM with SNB-19 CNS; 7.41 µM with EKVX NSCLC; 4.36 µM in the assay on HOP-62 NSCLC. In addition, the TGI was 14 µM with SK-OV-3 ovarian, 3.84 µM with HCC-2998 colon, 5.52 µM in the assay with MDA-MB-231 breast and 10.1 µM with CCRF-CEM leukemia.

Consider `O=C(Nc1ccccc1/C=C/c1n[nH]c2ccccc12)c1ccccc1`, for which the GI50 with SK-MEL-5 melanoma is 3.81 µM; with SR leukemia, 2.87 µM; with ACHN renal, 7.71 µM; with SNB-19 CNS, 5.93 µM; in the assay on EKVX NSCLC, 1.34 µM; in the assay with HOP-62 NSCLC, 2.15 µM. Moreover, the GI50 in the assay with SK-OV-3 ovarian was 10.9 µM; with HCC-2998 colon it was 1.62 µM; with MDA-MB-231 breast, 3.45 µM; with CCRF-CEM leukemia, 4.05 µM. Moreover, the TGI with SK-MEL-5 melanoma stood at 16.5 µM; with SR leukemia, 13.7 µM; in the assay on ACHN renal, 20.1 µM; with SNB-19 CNS, 22.5 µM; with EKVX NSCLC, 8.91 µM; with HOP-62 NSCLC, 6.13 µM. For the same molecule, the TGI with SK-OV-3 ovarian amounted to 22.8 µM; with HCC-2998 colon it was 4.23 µM; in the assay with MDA-MB-231 breast, 15.7 µM; in the assay with CCRF-CEM leukemia it was 22.3 µM.
